The test system of assay [1] is SCN culture slice. Briefly: Ex vivo SCN slice culture from Per2::LUC mice, lumicycle. It counts as cell-based, mouse. An excerpt: Tissue culture, drug treatment and Real-Time Monitoring of Circadian Oscillations: 8 week-old male mPer2 Luciferase knockin mice were Sacrificed cervical dislocation. Then wipe the skin and neck with cotton containing 70% ethanol in a sterile hood. For SCN slice culture, firstly remove the eye balls from the head with scissors, decapitate and cut the skin. Then open the skull, remove all bone until the olfactory bulbs can be seen, cut the optic nerve between the olfactory bulbs and the hemispheres, and finally harvest the whole brain into ice cold HBSS. Trim the brain in HBSS by removing the cerebellum and olfactory bulbs. Attach the brain to a sample tray by glue with the rostral tip upwards and ventral surface closest to the cutting blade, then immediately fill the tray with ice cold HBSS and set the tray to the vibratome. Set the vibratome frequency at the maximum and the speed to the medium. To reach the SCN area quickly, the start cutting off thicker sections should be 500-800 μm. Reduce the sections thicker to 100 μm when the optic chiasm becomes wider. When the two SCN nuclei start to appear, collect the slice with transfer pipettes and check slices under dissecting microscope. […] Data was extract and analyzed with LumiCycle Analysis software. […]

Assay [2] has as its target Ruvbl2 (Homo sapiens, UniProt Q9Y230). Briefly: SPR binding to RUVBL2 protein (Biacore T200). The note with it: purified RUVBL2. As for the experimental part:
Biotinylated Compounds Pull-down, SPR analysis and Immunoprecipitation: The interaction between biotinylated compounds and their target proteins were proceeded as follow. Every 10^8 unsynchronized U2OS cells were collected, homogenized into 2 ml lysis buffer (25 mM MOPS pH7.2, 15 mM EGTA, 15 mM MgCl2, 1 mM DTT, 60 mM β-glycerophosphate, 1 mM Na3VO4, 1 mM NaF, 1 mM phenyl phosphate, Complete Protease Inhibitor Cocktail), and sonicated 6 times for 30 s at 4° C. with a Diagenode bioruptor. After sonication, NP-40 (final 0.5%) was added, incubated 15 min on ice, centrifuged at full speed for 20 min at 4° C. The resultant supernatant was firstly incubated with Pentostatin (final concentration at 5 μg/ml) for 2 h at 4° C. with rotation, and then split into 4 groups. 200 pmol cordycepin, 200 pmol DRB, and DMSO (2 groups, final 0.1%) was added respectively and further incubated for 1 h. […] The eluted protein was analyzed with western blot. The binding affinity of cordycepin against the RUVBL2 protein was measured via SPR technology using a Biacore T200 instrument (GE Healthcare) at room temperature. […] The binding kinetics and binding affinity of cordycepin against the RUVBL2 protein were determined with BIA evaluation software (GE healthcare). […] Immunoprecipitated protein complex was then washed 3 times with IP lysis buffer, boiled and analyzed with western blot. […]
(In general: In SPR one partner is held on a chip, and binding of the other changes the refractive index at the surface.)

The nature of assay [3]: Sleep phenotype by locomoter activity and electrophysiological recording. The settings on record: in vivo. An excerpt:
This is considered as a positive side-effect to adapt to jet-lag, which causes more problems on the sleep than arousal side. […] This work provide immediate and important practical applications, including use the disclosed compounds to assist humans who suffer jet-lag or shift-work can use this drug to adjust the clock-phase, and simultaneously tune the sleep-wake pattern, particularly coupled with caffeine ingestion.

Structures are written as SMILES. “Also recorded” adds a separate entry of the source.

By Kd is commonly meant the equilibrium constant for the complex coming apart. A high value points to weaker binding.

Chain of Ruvbl2 (Q9Y230 whole entry): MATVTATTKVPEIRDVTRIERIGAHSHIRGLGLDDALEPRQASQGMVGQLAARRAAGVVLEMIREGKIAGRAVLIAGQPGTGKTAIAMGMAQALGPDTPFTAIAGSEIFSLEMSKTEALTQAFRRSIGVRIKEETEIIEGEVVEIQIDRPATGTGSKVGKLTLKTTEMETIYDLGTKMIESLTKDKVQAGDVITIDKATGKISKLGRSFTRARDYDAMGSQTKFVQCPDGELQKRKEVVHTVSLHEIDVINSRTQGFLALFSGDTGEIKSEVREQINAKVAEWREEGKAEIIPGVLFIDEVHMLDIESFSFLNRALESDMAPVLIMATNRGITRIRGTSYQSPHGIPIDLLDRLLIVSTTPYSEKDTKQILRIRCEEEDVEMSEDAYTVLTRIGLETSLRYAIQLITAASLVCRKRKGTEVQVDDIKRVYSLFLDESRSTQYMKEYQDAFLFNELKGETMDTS

For `Nc1ncnc2c1ncn2[C@@H]1O[C@H](CO)C[C@H]1O` [Cordycepin, 3′-deoxy-adenosine], the “clock phase of SCN slice” value in assay [1] is reported as “significant phase-shift with lower amplitude; also recorded: totally antiphase”. Besides, in assay [2], the Kd is ~500 nM. Besides, in assay [3], the sleep phenotype result is “leads to a sleep phenotype”.

These data come from US12667584B2, “Adenosine analog and its use in regulating the circadian clock” (NATIONAL INSTITUTE OF BIOLOGICAL SCIENCES, BEIJING, priority 2017, dated 2026).
